Patent publication US10758534B2 (Vertex Pharmaceuticals Incorporated, priority 2014, dated 2020)

Biological target: T1, F508del (Homo sapiens, UniProt P13569, DEL508-508)
T1 construct: expressed in transfected cells
Assay: Protocol 1: membrane potential optical assay (FLIPR III, voltage sensing dye), identification of potentiator compounds
Assay type: cell-based
Settings: Table 3, compounds of Table 1
Source text: Membrane Potential Optical Methods for Assaying F508del Modulation Properties of Compounds
The assay utilizes fluorescent voltage sensing dyes to measure changes in membrane potential using a fluorescent plate reader (e.g., FLIPR III, Molecular Devices, Inc.) as a readout for increase in functional F508del in NIH 3T3 cells. The driving force for the response is the creation of a chloride ion gradient in conjunction with channel activation by a single liquid addition step after the cells have previously been treated with compounds and subsequently loaded with a voltage sensing dye.
Identification of Potentiator Compounds
To identify potentiators of F508del, a double-addition HTS assay format was developed. This HTS assay utilizes fluorescent voltage sensing dyes to measure changes in membrane potential on the FLIPR III as a measurement for increase in gating (conductance) of F508del in temperature-corrected F508del NIH 3T3 cells. The driving force for the response is a Cl^− ion gradient in conjunction with channel activation with forskolin in a single liquid addition step using a fluorescent plate reader such as FLIPR III after the cells have previously been treated with potentiator compounds (or DMSO vehicle control) and subsequently loaded with a redistribution dye.
Bath Solution #1: (in mM) NaCl 160, KCl 4.5, CaCl2 2, MgCl2 1, HEPES 10, pH 7.4 with NaOH.
Chloride-free bath solution: Chloride salts in Bath Solution #1 (above) are substituted with gluconate salts.
NIH3T3 mouse fibroblasts stably expressing F508del are used for optical measurements of membrane potential. The cells are maintained at 37° C. in 5% CO2 and 90% humidity in Dulbecco's modified Eagle's medium supplemented with 2 mM glutamine, 10% fetal bovine serum, 1×NEAA, β-ME, 1× pen/strep, and 25 mM HEPES in 175 cm^2 culture flasks. For all optical assays, the cells were seeded at ˜20,000/well in 384-well matrigel-coated plates and cultured for 2 hrs at 37° C. before culturing at 27° C. for 24 hrs. for the potentiator assay. For the correction assays, the cells are cultured at 27° C. or 37° C. with and without compounds for 16-24 hours.

T1 sequence (P13569 with tags, fused parts or gaps DEL508-508): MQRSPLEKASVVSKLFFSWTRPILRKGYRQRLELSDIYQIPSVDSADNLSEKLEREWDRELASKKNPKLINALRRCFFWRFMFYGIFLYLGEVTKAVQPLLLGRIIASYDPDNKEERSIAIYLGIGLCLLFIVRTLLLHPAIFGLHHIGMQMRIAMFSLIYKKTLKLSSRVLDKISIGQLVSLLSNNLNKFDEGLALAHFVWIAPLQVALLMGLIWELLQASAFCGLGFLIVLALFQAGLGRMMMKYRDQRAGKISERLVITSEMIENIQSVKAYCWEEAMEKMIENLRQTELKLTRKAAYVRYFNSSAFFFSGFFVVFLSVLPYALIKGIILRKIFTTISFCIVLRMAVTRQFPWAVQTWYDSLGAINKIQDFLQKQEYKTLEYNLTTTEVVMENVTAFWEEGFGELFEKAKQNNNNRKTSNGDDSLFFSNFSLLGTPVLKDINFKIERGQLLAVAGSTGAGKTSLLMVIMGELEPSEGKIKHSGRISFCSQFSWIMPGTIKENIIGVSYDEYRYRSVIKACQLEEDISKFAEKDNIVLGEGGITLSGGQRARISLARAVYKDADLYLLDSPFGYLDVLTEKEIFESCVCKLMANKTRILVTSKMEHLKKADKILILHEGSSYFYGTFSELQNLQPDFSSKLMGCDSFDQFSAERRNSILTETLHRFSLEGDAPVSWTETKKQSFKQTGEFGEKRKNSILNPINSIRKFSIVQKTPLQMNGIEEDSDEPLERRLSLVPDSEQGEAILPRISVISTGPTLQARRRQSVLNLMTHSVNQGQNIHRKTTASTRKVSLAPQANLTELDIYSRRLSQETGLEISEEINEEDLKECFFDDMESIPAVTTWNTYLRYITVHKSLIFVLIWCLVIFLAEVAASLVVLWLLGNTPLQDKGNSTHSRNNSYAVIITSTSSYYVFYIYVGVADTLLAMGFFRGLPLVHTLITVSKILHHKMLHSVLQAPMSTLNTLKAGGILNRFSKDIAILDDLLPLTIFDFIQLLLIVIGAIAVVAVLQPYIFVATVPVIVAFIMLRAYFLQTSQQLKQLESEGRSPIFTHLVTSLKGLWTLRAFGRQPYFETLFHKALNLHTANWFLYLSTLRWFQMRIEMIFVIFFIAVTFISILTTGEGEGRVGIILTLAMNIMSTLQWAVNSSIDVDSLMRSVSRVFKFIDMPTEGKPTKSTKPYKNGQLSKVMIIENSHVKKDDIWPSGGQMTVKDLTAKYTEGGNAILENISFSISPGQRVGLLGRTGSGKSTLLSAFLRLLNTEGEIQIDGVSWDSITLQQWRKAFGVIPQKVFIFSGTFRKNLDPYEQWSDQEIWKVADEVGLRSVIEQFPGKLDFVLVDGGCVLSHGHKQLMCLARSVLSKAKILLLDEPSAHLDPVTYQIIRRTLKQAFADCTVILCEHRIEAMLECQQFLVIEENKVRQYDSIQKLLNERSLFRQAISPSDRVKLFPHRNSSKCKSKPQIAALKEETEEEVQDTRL

Structure (SMILES)	EC30
CCN(CC)c1ccc(-c2ccc(C(=O)NS(=O)(=O)c3cccc(N)n3)c(N3CC(C)CC3(C)C)n2)cn1 (stereo not shown) [Compound 796, N-[(6-amino-2-pyridyl)sulfonyl]-6-[6-(diethylamino)-3-pyridyl]-2-(2,2,4-trimethylpyrrolidin-1-yl)pyridine-3-carboxamide]	+++ (“+++” means <3 uM)
CC(C)(C)c1cc(C(=O)NS(=O)(=O)c2cccc(N)c2)n(Cc2ccc(Cl)cc2Cl)n1 [Compound 797, N-(3-aminophenyl)sulfonyl-5-tert-butyl-2-[(2,4-dichlorophenyl)methyl]pyrazole-3-carboxamide]	+ (“+” means greater than 10 uM)
COc1ncccc1S(=O)(=O)NC(=O)c1ccc(-c2cc(F)cc(OC(C)C)c2)nc1-c1ccc(C)cc1 [Compound 798, 6-(3-fluoro-5-isopropoxy-phenyl)-N-[(2-methoxy-3-pyridyl)sulfonyl]-2-(p-tolyl)pyridine-3-carboxamide]	+++ (“+++” means <3 uM)
CC(c1ccccc1)n1nc(C(C)(C)C)cc1C(=O)NS(=O)(=O)c1cccc(N)c1 (stereo not shown) [Compound 799, N-(3-aminophenyl)sulfonyl-5-ter-butyl-2-(1-phenylethyl)pyrazole-3-carboxamide]	+ (“+” means greater than 10 uM)
CC1CCN(c2nc3c(cc2C(=O)NS(=O)(=O)c2ccn[nH]2)CCCC3(C)C)CC1 [Compound 800, 8,8-dimethyl-2-(4-methyl-1-piperidyl)-N-(1H-pyrazol-5-ylsulfonyl)-6,7-dihydro-5H-quinoline-3-carboxamide]	++ (“++” means between 3 uM and 10 uM)
Cc1ccc(-c2ccc(C(=O)NS(=O)(=O)c3cccc(N)n3)c(N3CCC(C)CC3)n2)cc1 [Compound 802, N-[(6-amino-2-pyridyl)sulfonyl]-2-(4-methyl-1-piperidyl)-6-(p-tolyl)pyridine-3-carboxamide]	+++ (“+++” means <3 uM)
Cc1cc(C)c(Oc2nc(-c3cccc(OCC(C)C)c3F)ccc2C(=O)NS(=O)(=O)c2ccc[nH]c2=O)c(C)c1 [Compound 804, 6-(2-fluoro-3-isobutoxy-phenyl)-N-[(2-oxo-1H-pyridin-3-yl)sulfonyl]-2-(2,4,6-trimethylphenoxy)pyridine-3-carboxamide]	+++ (“+++” means <3 uM)
C[C@@H]1CC[C@H](C)N1c1nc(-c2ccccc2)ccc1C(=O)NS(=O)(=O)c1cccc(N)n1 [Compound 805, N-[(6-amino-2-pyridyl)sulfonyl]-2-[(2S,5R)-2,5-dimethylpyrrolidin-1-yl]-6-phenyl-pyridine-3-carboxamide]	+++ (“+++” means <3 uM)
CC(C)COc1ccc(F)c(-c2ccc(C(=O)NS(=O)(=O)c3cccc(N)n3)c(N3[C@H](C)CC[C@@H]3C)n2)c1 [Compound 807, N-[(6-amino-2-pyridyl)sulfonyl]-2-[(2S,5R)-2,5-dimethylpyrrolidin-1-yl]-6-(2-fluoro-5-isobutoxy-phenyl)pyridine-3-carboxamide]	+++ (“+++” means <3 uM)
Cc1ccc(-c2nc(C(C)(C)C)ccc2C(=O)NS(=O)(=O)c2ccc(O)cc2)cc1 [Compound 809, 6-tert-butyl-N-(4-hydroxyphenyl)sulfonyl-2-(p-tolyl)pyridine-3-carboxamide]	++ (“++” means between 3 uM and 10 uM)
CC(C)Oc1ccc(-c2ccc(C(=O)NS(=O)(=O)c3cccc(N)n3)c(N3C[C@@H](C)CC3(C)C)n2)cn1 [Compound 811, N-[(6-amino-2-pyridyl)sulfonyl]-6-(6-isopropoxy-3-pyridyl)-2-[(4S)-2,2,4-trimethylpyrrolidin-1-yl]pyridine-3-carboxamide]	+++ (“+++” means <3 uM)
CCOc1ccc(-c2ccc(C(=O)NS(=O)(=O)c3cc[nH]n3)c(Oc3ccc(C)cc3C)n2)cc1 [Compound 813, 2-(2,4-dimethylphenoxy)-6-(4-ethoxyphenyl)-N-(1H-pyrazol-3-ylsulfonyl)pyridine-3-carboxamide]	+++ (“+++” means <3 uM)
Cc1nc(OC(C)C)ccc1-c1ccc(C(=O)NS(=O)(=O)c2cccc(N)n2)c(N2CC(C)CC2(C)C)n1 (stereo not shown) [Compound 814, N-[(6-amino-2-pyridyl)sulfonyl]-6-(6-isopropoxy-2-methyl-3-pyridyl)-2-(2,2,4-trimethylpyrrolidin-1-yl)pyridine-3-carboxamide]	+++ (“+++” means <3 uM)
CCc1cnc2c(c1)cc(C(=O)NS(=O)(=O)c1cccc(N)n1)n2Cc1c(C)cc(C)cc1C [Compound 816, N-[(6-amino-2-pyridyl)sulfonyl]-5-ethyl-1-[(2,4,6-trimethylphenyl)methyl]pyrrolo[2,3-b]pyridine-2-carboxamide]	++ (“++” means between 3 uM and 10 uM)

The remaining lines, values ahead:

EC30	Structure (SMILES)
+ (“+” means greater than 10 uM)	Cc1cc(C)c(Oc2nc(-c3cccc(CN)c3)ccc2C(=O)NS(=O)(=O)c2cccc(N)n2)c(C)c1 [Compound 801, 6-[3-(aminomethyl)phenyl]-N-[(6-amino-2-pyridyl)sulfonyl]-2-(2,4,6-trimethylphenoxy)pyridine-3-carboxamide]
+++ (“+++” means <3 uM)	Cc1cc(C)c(Oc2nc(-c3cc(F)ccc3F)ccc2C(=O)NS(=O)(=O)c2cccc(N)n2)c(C)c1 [Compound 803, N-[(6-amino-2-pyridyl)sulfonyl]-6-(2,5-difluorophenyl)-2-(2,4,6-trimethylphenoxy)pyridine-3-carboxamide]
++ (“++” means between 3 uM and 10 uM)	COc1ccc(C(=O)NS(=O)(=O)c2cccc(N)n2)c(Oc2c(C)cc(C)cc2C)n1 [Compound 806, N-[(6-amino-2-pyridyl)sulfonyl]-6-methoxy-2-(2,4,6-trimethylphenoxy)pyridine-3-carboxamide]
++ (“++” means between 3 uM and 10 uM)	Cc1cc(C)c(Oc2nc(-c3cnn(C(C)C)c3)ccc2C(=O)NS(=O)(=O)c2cccc(N)n2)c(C)c1 [Compound 808, N-[(6-amino-2-pyridyl)sulfonyl]-6-(1-isopropylpyrazol-4-yl)-2-(2,4,6-trimethylphenoxy)pyridine-3-carboxamide]
++ (“++” means between 3 uM and 10 uM)	Cc1cc(C)c(Oc2nc(-c3ccc(CN4CCOCC4)cc3)ccc2C(=O)NS(=O)(=O)c2cccc(N)n2)c(C)c1 [Compound 810, N-[(6-amino-2-pyridyl)sulfonyl]-6-[4-(morpholinomethyl)phenyl]-2-(2,4,6-trimethylphenoxy)pyridine-3-carboxamide]
++ (“++” means between 3 uM and 10 uM)	Cc1cc(C)c(Oc2nc(-c3cn(C)nc3C(F)(F)F)ccc2C(=O)NS(=O)(=O)c2cccc(N)n2)c(C)c1 [Compound 812, N-[(6-amino-2-pyridyl)sulfonyl]-6-[1-methyl-3-(trifluoromethyl)pyrazol-4-yl]-2-(2,4,6-trimethylphenoxy)pyridine-3-carboxamide]
++ (“++” means between 3 uM and 10 uM)	Cc1cc(C)c(Oc2nc(-c3cc(F)cc(F)c3)ccc2C(=O)NS(=O)(=O)c2ccc[nH]c2=O)c(C)c1 [Compound 815, 6-(3,5-difluorophenyl)-N-[(2-oxo-1H-pyridin-3-yl)sulfonyl]-2-(2,4,6-trimethylphenoxy)pyridine-3-carboxamide]
+++ (“+++” means <3 uM)	Cc1cc(C)c(Oc2ncc(-c3ccccc3C)cc2C(=O)NS(=O)(=O)c2cccc(N)n2)c(C)c1 [Compound 817, N-[(6-amino-2-pyridyl)sulfonyl]-5-(o-tolyl)-2-(2,4,6-trimethylphenoxy)pyridine-3-carboxamide]
